Measurements published in patent US7361459B2, “Antiviral inhibition of capsid proteins” (University of Maryland, Baltimore County, priority 2002, dated 2008).
Where two headings read alike, the source gives them in different places.

How the values were obtained:
HIV-1RF = test: Virus particle infectivity and RT activity from infected MAGI cell cultures; format: cell-based
Procedure: (§1) U1 cells (5×10^5 cells/ml) were mixed with TNF-α (10 ng/ml, Sigma) for activation of HIV virion production and treated with CAP-1 at different concentrations. Cultures were harvested 72 hours after treatment. Cell viability was measured using the MTS cell proliferation assay (CellTiter 96 Aqueous One Solution Cell Proliferation Assay, Promega, Madison, Wis.). Supernatants were collected, the cell debris removed by low speed centrifugation, and the particles in the supernatants pelleted by microcentrifugation. Infectious units associated with the particles were measured as described in Kimpton, et al., Detection of replication-competent and pseudotyped HIV with a sensitive cell line on the basis of activation of an integrated β-galactosidase gene, J. Virol. 66: 2232-39, 1992, except that β-gal activities were measured using a Tropix Gal-Screen detector system (Applied Biosystems, Foster City, Calif.). Particle-associated RT activities were determined as described in Huang, et al., p6Gag is required for particle production from full length human immunodeficiency virus type 1 molecular clones expressing protease, J. Virol., […]: 6810-18, 1995. Cell lysates and pelleted particles were subjected to SDS-PAGE analysis using AIDS patient sera (AIDS Research and Reference Regent Program, NIAID, NIH). Quantitative p24 (CA) assays were performed with the HIV-1 p24 Antigen Capture ELISA kit (AIDS vaccine program, FCRDC/SAIC/NCI, Frederick, Md.). MAGI cells were washed after viral adsorption (HIV-1RF) with PBS and were fed fresh media containing CAP-1 at various concentrations. 72 hours post-infection, the culture supernatants were harvested and pre-cleared. Virus particles present on the supernatants were collected by microcentrifugation and particle-associated RT activity and infectivity were subsequently measured.

HIV-1 CA = HIV-1 CA (Human immunodeficiency virus type 1 group M subtype B, UniProt P12493); conditions: for initial assembly rate: 350 nm, 21° C., no compound 204±36
Procedure: Turbidity assays were performed at 21° C. using a Beckman DU650 spectrophotometer operating at 350 nm wavelength. Concentrated ligand in DMSO (0.2 μl) was added to a 250 μl aqueous solution containing the capsid protein ([CA]=60 μM; [NaH2PO4]=50 mM; pH 8.0). Particulates were removed by centrifugation, and capsid assembly was initiated by addition of a concentrated NaCl solution (5 M, 250 μl). Spectral measurements were made every 10 s, following a short initial delay to allow sample equilibration. Relative assembly rates were estimated from initial slopes of the plots of absorbance vs. time.
Tube formation leads to increases in sample turbidity that can be monitored spectrophotometrically, and this assay was used to probe for potential inhibitory effects of the CAP compounds on in vitro capsid assembly.

HIV-1 [1] = test: Virus production: particle-associated RT activity and CA (p24) levels in U1 supernatants; format: cell-based; conditions: U1 cells
Procedure: as §1, with “Cell lysates and pelleted particles were subjected to SDS-PAGE analysis using AIDS patient sera (AIDS Research and Reference Regent Program, NIAID, NIH).” left out, “MAGI cells were washed after viral adsorption (HIV-1RF) with PBS and were fed fresh media containing CAP-1 at various concentrations. 72 hours post-infection, the culture supernatants were harvested and pre-cleared. Virus particles present on the supernatants were collected by microcentrifugation and particle-associated RT activity and infectivity were subsequently measured.” left out

gp120 = test: Quantitation of gp120 in supernatant with antibodies against gp120; format: cell-based, HIV-1
Procedure: (§2) To determine if CAP-1 affects viral gene expression and particle production, reverse transcriptase (RT) activity and CA (p24) levels were measured for the supernatants after pelleting and removal of the cells. […] Quantitation of gp120 was also obtained for the supernatant using antibodies against gp120.

Gag = Gag (Human immunodeficiency virus type 1 group M subtype B, UniProt P12493); test: Mass action calculation of CAP-1 bound to CA/Gag in immature virions; set-up: species or system HIV-1
Procedure: This is likely due to the high local concentration of Gag molecules in assembled virions (14 mM), which favors binding by ligands with even modest affinities, e.g., N-(3-chloro-4-methylphenyl)-N′-[2-thioethyl-2′-[5-(dimethylaminomethyl)]-2-methylfuryl]urea (CAP-1). Thus conservatively assuming that cytosolic drug concentrations in the budding virus and cells are equal (100 μM), the percentage of viral CAP-1 molecules bound to CA can be estimated by standard mass action calculations which affords a value for the concentration of bound CAP-1 ([CA:CAP-1]) of 94 μM.

U1 cells = test: Cell viability / toxicity, MTS cell proliferation assay; conditions: for toxicity (in words): latent infected U1 cells
Procedure: as §1
The CAP compounds were tested for toxicity and antiviral activity using HIV-1 producing, latent infected U1 cells. This assay allows assessment of antiviral effects on late phase replication events.

[2] = tested on: HIV-1 capsid core assembly; format: cell-based; conditions: particles from treated U1 cells
Procedure: Treated (CAP-1) and untreated virus-producing U1 cells were pelleted, washed in phosphate-buffered saline (PBS) and resuspended in at least ten cell pellet volumes of fixative (100 mM sodium cacodylate, pH 7.2, 2.5% glutaraldehyde, 1.6% paraformaldehyde, 0.5% picric acid). Cells were fixed for 24-48 hours, after which fixative was removed and cells were washed twice in PBS and pelleted in eppendorf centrifuge tubes. Washed cell pellets were post-fixed one hour in 1% osmium tetroxide plus 0.8% potassium ferricyanide in 100 mM sodium cacodylate, pH 7.2. After thorough rinsing in water, cells were pre-stained in 4% uranyl acetate one hour, thoroughly rinsed, dehydrated, infiltrated overnight in 1:1 acetone:Epon 812, infiltrated one hour with 100% Epon 812 resin, and embedded in the resin. After polymerization, 60-80 nm thin sections were cut on a Reichert untramicrotome, stained 5 minutes in lead citrate, rinsed, post-stained 30 minutes in uranyl acetate, rinsed and dried. EM was performed at 60 kV on a Philips CM120/Biotwin equipped with a 1024×1024 Gatan multiscan CCD, and images were collected at original magnifications of 25,880×-36,960×, corresponding t resolutions of 8.9 and 6.5 Å/pixel, respectively. For each sample, 4 separate EM grids were viewed, and at least 47 were collected, corresponding to a minimum total area of 35 micron^2.

[3] = molecular target: T1, HIV-1 capsid protein N-terminal domain (Human immunodeficiency virus type 1 group M subtype B, UniProt P12493); test: 1H-15N HSQC NMR titration, binding to the apical cleft; conditions: for binding to the capsid NTD, from chemical shift changes (in words): 1H-15N HSQC, FIGS. 13-14
T1 construct: DNA encoding the CA N-terminal domain (residues 1-151); made in house
Excerpt: DNA encoding the CA N-terminal domain (residues 1-151) was amplified from HIV-1 cDNA plasmid pNL-4-3 and an oligonucleotide encoding a C-terminal hexahistidine tag was appended to the gene. The DNA was inserted into a p11a expression vector (Novagen, Madison, Wis.), and the protein product was purified by cobalt affinity chromatography (Clontech, Palo Alto, Calif.); MWcalc=17523.0 daltons, MWobs=17523.10±0.44 daltons (electrospray Mass Spectrometry). The plasmid for the full length, native capsid protein was kindly provided by Dr. W. I. Sundquist (University of Utah, Salt Lake City, Utah), and the protein was purified as described. NMR spectra were assigned using conventional triple resonance methods. Binding isotherms from ^1H-^15N NMR HSQC titration experiments were calculated with ORIGIN 7.0 software (MicroCal, Northampton, Mass.).
To identify compounds that inhibit functions of the capsid protein, public domain chemical libraries were screened for compounds that might bind to clefts on the surface of the capsid protein and tested for binding using NMR titration spectroscopy. Screening efforts focused mainly on a β-hairpin cleft that is exposed on the surface of the N-terminal domain of the immature capsid protein but becomes occupied by residues of a β-hairpin that forms after proteolytic cleavage of Gag.
The mature N-terminal domain was titrated with N-(3-chloro-4-methylphenyl)-N′-[2-thioethyl-2′-[5-(dimethylaminomethyl)]-2-methylfuryl ]urea (CAP-1).

protease = protease (Human immunodeficiency virus type 1 group M subtype B, UniProt P04585); test: In vitro protease activity; format: biochemical
HIV-1 [4] = test: Infectious units of particles from latent infected U1 cells; format: cell-based
Procedure: as §1, with “Cell lysates and pelleted particles were subjected to SDS-PAGE analysis using AIDS patient sera (AIDS Research and Reference Regent Program, NIAID, NIH).” left out, “MAGI cells were washed after viral adsorption (HIV-1RF) with PBS and were fed fresh media containing CAP-1 at various concentrations. 72 hours post-infection, the culture supernatants were harvested and pre-cleared. Virus particles present on the supernatants were collected by microcentrifugation and particle-associated RT activity and infectivity were subsequently measured.” left out

Gag polyprotein = test: p24 (CA) Western blot of Gag and its cleavage products, U1 cells; format: cell-based, HIV-1
Procedure: as §1, with “72 hours post-infection, the culture supernatants were harvested and pre-cleared.” left out
as §2

[5] = as a function of increasing CAP-1

Cc1ccc(NC(=O)NCCSCc2ccc(CN(C)C)o2)cc1Cl [CAP-1, N-(3-chloro-4-methylphenyl)-N′-[2-thioethyl-2′-[5-(dimethylaminomethyl)]-2-methylfuryl]urea]
infectious units, of the untreated levels (HIV-1RF; 100 μM, MAGI cells, 72 hours post-infection): less than 2%
viral RT activity (in words) (HIV-1RF; MAGI cells): No reductions
virus production after pre-incubation of MAGI cells or virus particles (in words) (HIV-1RF; pre-incubation with CAP-1): unaffected
effect on the rate of assembly (in words) (HIV-1 CA): diminished in a dose-dependent manner
initial assembly rate (HIV-1 CA; compound:CA ratio 1:1): 93±3 mOD/min
initial assembly rate (HIV-1 CA; compound:CA ratio 2:1): 67±16 mOD/min
CA (p24) levels of supernatants (in words) (HIV-1 [1]): unaffected
RT activities of supernatants (in words) (HIV-1 [1]): unaffected
gp120 in supernatant, treated vs untreated (in words) (gp120): No differences
CAP-1 molecules in immature virions bound to Gag (Gag; 100 μM dose): 94%
concentration of bound CAP-1 ([CA:CAP-1]) (Gag; 100 μM drug, 14 mM Gag in assembled virions): 94 µM
cell viability (in words) (U1 cells; 100 μM, U1 cells, 72 hours): fully viable
tolerability in cell cultures (in words) (U1 cells; cell cultures): particularly well-tolerated
toxicity (in words) (U1 cells; 72 hours): non-toxic
particles with a cone-shaped core (in words) [2]: none
particles containing a dense, centrally located core ([2]; untreated 70%): 35%
binding to the capsid NTD, from chemical shift changes (in words) [3]: bind to the apical site of the protein
in vitro protease activity (in words) (protease): did not affect
effect on supernatant infectivity (in words) (HIV-1 [4]): dose dependent reductions
reduction of infectivity relative to untreated samples (HIV-1 [4]; 100 μM, 72 hours): ca. 95%
intracellular levels of Gag (p55) (in words) (Gag polyprotein; [5]): reduction
levels of Gag cleavage products p24 and p41 (in words) (Gag polyprotein; [5]): remained relatively unaffected
proteolytic processing of Gag (in words) (Gag polyprotein; p24 Western, treated vs untreated): does not significantly affect

CC(=O)Nc1ccc(NC(=O)Nc2ccc(C)c([N+](=O)[O-])c2)cc1 [CAP-2, N-(4-N-acetamidophenyl)-N′-(3-nitro-4-methylphenyl) urea]
effect on the rate of assembly (in words) (HIV-1 CA): diminished in a dose-dependent manner
initial assembly rate (HIV-1 CA; compound:CA ratio 0.5:1): 81±2 mOD/min
initial assembly rate (HIV-1 CA; compound:CA ratio 1:1): 39±11 mOD/min
toxicity (in words) (U1 cells; 72 hours): too cytotoxic
binding to the capsid NTD, from chemical shift changes (in words) [3]: bind to the apical site of the protein
Kd ([3]; NMR titration, 1:1 binding isotherms): 52 ± 27 µM

Cc1ccc(NC(=O)NC(C)C)cc1[N+](=O)[O-] [CAP-3, N-(2-propyl)-N′-(3-nitro-4-methylphenyl) urea]
binding to the capsid NTD, from chemical shift changes (in words) [3]: very weak binding

Cc1ccc(NC(=O)Nc2ccc(C#N)cc2)cc1Cl [CAP-4, N-(3-chloro-4-methylphenyl)-N′-(4-cyanophenyl) urea]
binding to the capsid NTD, from chemical shift changes (in words) [3]: very weak binding

Cc1ccc(NC(=O)Nc2ccc(C(Cl)(Cl)Cl)cc2)cc1Cl [CAP-5, N-(3-chloro-4-methylphenyl)-N′-[4-(1,1,1-trichloromethyl)phenyl] urea]
binding to the capsid NTD, from chemical shift changes (in words) [3]: capsid binding

O=C(Nc1cccc(C(F)(F)F)c1)Nc1ccc(F)c([N+](=O)[O-])c1 [CAP-6, N-(3-nitro-4-fluorophenyl)-N′-[3-(1,1,1-trifluoromethyl)phenyl] urea]
binding to the capsid NTD, from chemical shift changes (in words) [3]: capsid binding

N-[(3-chloro-4-methyl phenyl)-N′,N′-propyl] urea [CAP-7]
binding to the capsid NTD, from chemical shift changes (in words) [3]: capsid binding
